Measurements: US5407927A, “Treatment of mild depression and restoration of IGF-I levels in aging by dehydroepiandrosterone” (The Regents of the University of California, priority 1993, dated 1995)
Like-named read-outs stand apart in the source and are kept apart here.

Legend:
Assay type in all cases: in vivo, human
[1] = Serum apolipoproteins (immunoassay); conditions: DHEA (50 mg) × 3 months, mean ± standard error
Protocol: (§1) Seventeen women and 13 men ages 40-70 in good medical health were enrolled in a clinical trial of DHEA replacement of 6 months duration. The trial was structured as a double-blind randomized placebo-controlled crossover study. […] These subjects were seen monthly and received 50 mg DHEA orally, nightly for 3 months and placebo for 3 months.
(§2) Serum cholesterol, triglycerides, apolipoproteins A1 and B, and the HDL and LDL lipoproteins were measured on all serum specimens. Cholesterol, triglycerides, HDL and LDL were measured by standard enzymatic methods. (Allain, C.A., et al., Clin. Chem. 1974, 20:470.) Apolipoproteins were measured by immunoassay methods. Immunoassay methods for measurement of apolipoproteins are described in the literature. […] All other lipid or lipoprotein levels were unchanged by the DHEA administration.

[2] = Side effects and safety parameters (physical exams, hematology, chemistry) in clinical trial; conditions: 17 women and 13 men ages 40-70; 50 mg orally, nightly, 3 months
Protocol: as §1

[3] = Serum cholesterol, triglycerides, HDL and LDL (standard enzymatic methods); conditions: for CHOLESTEROL / HDL / LDL / TG: DHEA (50 mg) × 3 months, mean ± standard error
Protocol: as §1, §2

[4] = system: testosterone, androstenedione, and dihydrotestosterone; experiment: Serum androgen levels during oral DHEA (immunoassay); conditions: 50 mg DHEA orally, nightly
Protocol: (§3) FIG. 2: Hormonal levels during DHEA (50 mg) therapy (represented by stippled area) in men and women. ADIONE (androstenedione); TEST (testosterone); DHT(dihydrotestosterone); SHBG(sex-hormone binding globulin). The shaded area represents the duration of DHEA treatment.
as §1
(§4) Blood specimens were drawn from all subjects in the study at baseline (time 0) and at 2 weeks and 12 weeks after DHEA administration, and at 2 weeks after DHEA administration was discontinued. DHEA, DHEAS, androstenedione, testosterone, dihydrotestosterone, and the sex hormone binding globulin were all measured by immunoassay as described by Anderson, D.C., et al. Steroid, 1976, 28:179.
(§5) Serum levels of testosterone, androstenedione, and dihydrotestosterone, as well as the sex-hormone binding globulin are shown in FIG. 2.

[5] = Body composition (% body fat by bioelectric impedance, BMI); conditions: DHEA 50 mg orally, nightly, 3 months, mean ± standard error
Protocol: The term "BMI" means body mass index which is body weight (kg)/height (m^2).
as §1
(§6) Insulin sensitivity and glucose effectiveness were measured by euglycemic hyperinsulinemic clamp (Bergman, R.N. J. Clin. Invest., 1987, 79:790-800) and rapid intravenous glucose tolerance test (Bergman, R.N., et al. Amer. J. Physiol., 1979, 236:667-677) and % body fat as measured by bioelectric impedance (Lukaski, H. Amer. J. Nutrition, 1987, 46:537) were measured on all patients after DHEA of placebo treatment. The glucose disposal rate was also measured using Bergman, 1987 (supra).

[6] = system: sex-hormone binding globulin; experiment: Serum sex-hormone binding globulin during oral DHEA (immunoassay); conditions: 50 mg DHEA orally, nightly
Protocol: as §3, §1, §4, §5

[7] = Pharmacokinetic study comparing oral and sublingual administration of DHEA; conditions: for Tmax: human, serum, read-out: time to peak levels of DHEA
Protocol: FIG. 5: Hormonal levels in men and women after oral 50 mg DHEA (.cndot. and sublingual 50 mg. DHEA (.smallcircle. ).
A pharmacokinetic study comparing oral and sublingual administration of DHEA was performed on the men and women subjects. DHEA, DHEAS, androstenedione, testosterone and dihydrotestosterone were measured by the immunoassay methods described above on serum specimens drawn at 30 minutes, 1 hour, 2 hours, 4 hours, 5 hours and 8 hours after dose administration. […] Peak levels of DHEA were achieved within 30 minutes with the sublingual route and 3 hours with the oral route.

[8] = system: insulin-like growth factor I (IGF-I); experiment: Serum insulin-like growth factor I (immunoassay); conditions: DHEA 50 mg, 3 months
Protocol: (§7) Blood specimens are drawn from patients immediately prior to the onset of DHEA administration and preferentially at 30 days after the beginning of treatment and at periodic intervals thereafter determined by the treating physician. Serum IGF-I and IGF BP-I levels are determined by immunoassay on these blood specimens. There are a variety of immunoassay methods available for determination of IGF-I and IGF BP-I which are reported in the literature and which are known to those of skill in the art. (Breier, B.H., et al., J. of Endocrinol., 1991, 128:347-357 and Pekonen, F. et al. J. Immunoassay, 1989, 10:325-337.
as §1
(§8) Insulin-like growth factor I and insulin-like growth factor binding protein I were measured in serum specimens by immunoassay as described previously.

[9] = Glucose metabolism (euglycemic hyperinsulinemic clamp, rapid intravenous glucose tolerance test); conditions: DHEA 50 mg orally, nightly, 3 months, mean ± standard error
Protocol: as §1, §6

[10] = Serum DHEA and DHEAS levels during oral DHEA (immunoassay)
Protocol: FIG. 1: DHEAS and DHEA serum levels in men and women at baseline, 2 and 12 weeks of DHEA (50 mg) administration and 2 weeks after discontinuation. The horizontal solid line represents mean level during the second decade of life.
as §1, §4, §5

[11] = system: insulin-like growth factor binding protein I (IGF BP-I); experiment: Serum insulin-like growth factor binding protein I (immunoassay); conditions: DHEA 50 mg, 3 months
Protocol: as §7, §1, §8

[12] = Self-reported libido (visual analog scale); conditions: end of 3 month DHEA period
Protocol: as §1
(§9) Libido was self-reported by the patients and scored on a visual analog scale. Subjects were evaluated at the end at the 3 month period of DHEA or placebo treatment.

[13] = Sense of well-being or mood-elevating effect (question to subjects); conditions: DHEA 50 mg, 3 months
Protocol: as §1
Sense of well-being or mood-elevating effect was reported in response to a question: "Have you noted any effect, good or bad during this treatment?
as §9

C[C@]12CC[C@H](O)CC1=CC[C@@H]1[C@@H]2CC[C@]2(C)C(=O)CC[C@@H]12 [DHEA, dehydroepiandrosterone]
APO A1 ([1]; men): 167.4 ± 6.1
APO B ([1]; men): 149.8 ± 8.5
APO A1 ([1]; women): 213.7 ± 8.1
APO B ([1]; women): 137.4 ± 5.9
Safety parameters (physical exams, hematology, chemistry) [2]: all within normal limits
side effects [2]: No side effects were reported
CHOLESTEROL ([3]; men): 209.9 ± 9.4
HDL ([3]; men): 44.8 ± 1.7
LDL ([3]; men): 147.5 ± 8.5
TG ([3]; men): 107.7 ± 10.5
all other lipid or lipoprotein levels (change, in words) ([3]; women and men, DHEA 50 mg, 3 months): unchanged
HDL levels (change, in words) ([3]; women, DHEA 50 mg, 3 months): Only a small reduction in HDL levels were seen in women
CHOLESTEROL ([3]; women): 218.3 ± 6.9
HDL ([3]; women): 63.4 ± 2.7
LDL ([3]; women): 136.0 ± 4.9
TG ([3]; women): 94.2 ± 7.4
androgens, particularly dihydrotestosterone and estrogens ([4]; men): no changes in any androgens
androgen levels (testosterone, androstenedione, dihydrotestosterone) ([4]; women): doubling of their androgen levels
% FAT ([5]; men): 21.9 ± 1.3%
BMI ([5]; men): 27.0 ± 0.7 kg/m^2
% FAT ([5]; women): 31.3 ± 1.0%
BMI ([5]; women): 24.7 ± 0.7 kg/m^2
Sex-hormone binding globulin level [6]: a trend of decline but this decline was not statistically significant
rate of absorption, sublingual versus oral ([7]; 50 mg, men and women): absorbed most rapidly sublingually
Tmax ([7]; oral 50 mg): ≤ 3 h
Tmax ([7]; sublingual 50 mg): ≤ 0.5 h
IGF-I (change, in words) ([8]; men and women): statistically significant elevation
free IGF-I (change, in words) ([8]; men and women, inferred from IGF-I and IGF BP-I): overall increase in free IGF-I
IGF-I increase ([8]; men): 10%
IGF-I increase ([8]; women): 12%
GLUCOSE DISPOSAL RATE ([9]; men): 7.64 ± 0.056 mg/kg/min
GLUCOSE EFFECTIVENESS ([9]; men): 0.019 ± 0.001 min⁻¹
INSULIN SENSITIVITY ([9]; men): 3.69 ± 0.5 × 10^-4 min^-1 uU^-1 ml
GLUCOSE EFFECTIVENESS ([9]; women): 0.024 ± 0.002 min⁻¹
INSULIN SENSITIVITY ([9]; women): 2.90 ± 0.4 × 10^-4 min^-1 uU^-1 ml
blood levels of DHEA ([10]; adults 40-80 years old, 50 to 100 mg orally or sublingually daily, FIG. 1): in the physiological range for younger adults
DHEAS serum levels (maintenance) ([10]; men and women, 50 mg DHEA orally, nightly, three month trial): maintained throughout the three month trial
DHEAS serum levels (rise) ([10]; men and women, 50 mg DHEA orally, nightly, within 2 weeks of administration): rose to those levels seen in the second decade of life within 2 weeks of administration
time for DHEAS levels to return to baseline after discontinuing DHEA ([10]; men and women, after discontinuing 50 mg DHEA): ≤ 2 weeks
IGF BP-I (change, in words) ([11]; men and women): decrease
IGF BP-I decrease ([11]; men): 12%
IGF BP-I decrease ([11]; women): 22%
self-reported libido [12]: no difference was seen while subjects were on DHEA
mood-elevating effect ([13]; majority of both men and women, in retrospect): An impressive mood-elevating effect was noted in retrospect by the majority of both men and women
responses to question on effect noted during treatment ([13]; men and women): "sleeping better" "better ability to handle stress" "more relaxed", "easier time falling asleep", "more energy" and "better moods"
